The record followed here is patent US12617785B2, “Pyrrolo[2,3-b]pyridine-3-carboxamide compositions and methods for ameliorating hearing loss” (priority 2020, dated 2026).

Experiment [1] concerns Yap. Nature of the experiment: Yap phosphorylation by western blot in cultured utricles. The format is cell-based. The conditions noted are these: utricles from adult mice. How it is done:
(§1) The compound T01 was tested extensively to explore its mechanism of action and its utility in regenerating hair cells of the ear. The effects of the compounds were tested on utricles isolated from mice eight to twelve weeks of age. Internal ears were dissected from mice euthanized with fluothane and placed into ice-cold Hank's balanced salt solution, and cultured as previously described by Gnedeva, K. & Hudspeth [Proc. Natl. Acad. Sci. 112, 14066-14071 (2015)].
(§2) ; T01-treated=250 EdU+ supporting cells; […]

The test system of experiment [2] is adult utricular supporting cells. Nature of the experiment: EdU proliferation assay in cultured adult utricles. The conditions noted are these: after 5 days of treatment; control=20; p=0.021. The format is cell-based, mice. The method, then:
as §1
For proliferation assays, utricles were cultured with 10 μM 5-ethynyl-2′-deoxyuridine (EdU) that was detected with click chemistry.
as §2

Experiment [3] deals with T1, Lats1 (Homo sapiens, UniProt O95835).
T1 construct: purchased Carna 01-123
T1 sequence (O95835 1-1130): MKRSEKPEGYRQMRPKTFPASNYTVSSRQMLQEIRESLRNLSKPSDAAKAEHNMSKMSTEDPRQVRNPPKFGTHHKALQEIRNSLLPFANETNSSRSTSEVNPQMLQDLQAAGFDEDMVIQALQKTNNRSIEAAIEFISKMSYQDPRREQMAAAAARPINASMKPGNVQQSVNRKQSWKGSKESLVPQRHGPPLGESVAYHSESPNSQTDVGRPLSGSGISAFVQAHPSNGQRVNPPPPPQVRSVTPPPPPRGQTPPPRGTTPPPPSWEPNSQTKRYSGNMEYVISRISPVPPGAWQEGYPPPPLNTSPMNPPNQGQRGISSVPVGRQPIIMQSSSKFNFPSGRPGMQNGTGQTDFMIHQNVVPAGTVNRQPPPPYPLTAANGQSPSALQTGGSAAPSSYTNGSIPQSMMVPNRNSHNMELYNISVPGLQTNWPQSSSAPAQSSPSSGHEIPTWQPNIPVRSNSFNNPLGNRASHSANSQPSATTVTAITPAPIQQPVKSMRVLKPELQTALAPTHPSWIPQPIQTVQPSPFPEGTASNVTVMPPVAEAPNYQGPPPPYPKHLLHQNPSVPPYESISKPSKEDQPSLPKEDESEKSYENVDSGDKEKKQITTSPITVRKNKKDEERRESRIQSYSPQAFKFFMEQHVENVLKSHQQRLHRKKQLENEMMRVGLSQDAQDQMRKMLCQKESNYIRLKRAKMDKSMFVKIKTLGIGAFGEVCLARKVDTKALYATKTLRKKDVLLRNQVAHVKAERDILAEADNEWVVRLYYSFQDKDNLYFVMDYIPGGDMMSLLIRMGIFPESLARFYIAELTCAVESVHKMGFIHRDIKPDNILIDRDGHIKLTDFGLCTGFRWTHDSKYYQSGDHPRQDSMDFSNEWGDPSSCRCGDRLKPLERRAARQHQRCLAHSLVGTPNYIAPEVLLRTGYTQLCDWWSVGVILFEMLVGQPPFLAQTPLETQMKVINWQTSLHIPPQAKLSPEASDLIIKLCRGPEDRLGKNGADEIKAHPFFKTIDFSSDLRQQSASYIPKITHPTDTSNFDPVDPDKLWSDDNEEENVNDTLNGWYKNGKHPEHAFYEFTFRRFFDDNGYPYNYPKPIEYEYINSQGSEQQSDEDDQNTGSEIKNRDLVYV
Nature of the experiment: In vitro kinase assay (HTRF KinEASE-STK S1) Lats1, 10 uM ATP. The format is biochemical. How it is done: IVKA assay at 10 uM method:
(§3) Reactions were conducted with 10 μM STK1 substrate and 10 μM ATP or 2 mM ATP as shown below. […] The enzyme, substrate, ATP, and test compound of the invention were combined in a low-volume 384-well plate and shaken for 50 min at room temperature, unless otherwise indicated. The reaction was stopped by adding the detection reagents, which were prepared at an 8:1 biotin:streptavidin ratio and shaking for 60 min at room temperature. All reactions were conducted in triplicate and a Synergy NEO (Biotek) was used to detect the signal.

Experiment [4] addresses T1, Lats1. Kind of experiment: In vitro kinase assay (HTRF KinEASE-STK S1) Lats1, 2 mM ATP. The format is biochemical. How it is done:
as §3
Assay was carried out in a 384 well plate. Each drug dosage curve was done with 16 points of 3-fold dilutions in 100% DMSO, and triplicate.
(In TR-FRET formats the signal depends on donor and acceptor labels being close together.)

The mark [5] stands for this setting: 10 uM ATP, read-out: LATS1_HTRF_10 uM ATP IC50.
Setting [6] is: 2 mM ATP, read-out: LATS1_HTRF_2 mM ATP IC50.

Each structure is given as a SMILES string.

For orientation: IC50 means the concentration that gives 50% inhibition.

With `O=C(/N=c1\sccn1Cc1ccccc1)c1c[nH]c2ncccc12` [T01, (Z)—N-(3-benzylthiazol-2(3H)-ylidene)-1H-pyrrolo[2,3-b]pyridine-3-carboxamide], in experiment [1], the “level of Yap phosphorylation as detected by western blot” value is listed as “striking reduction”. For the same molecule, in experiment [2], the “EdU+ supporting cells” value is 250.
As to `O=C(/N=c1\sccn1-c1ccccc1)c1c[nH]c2ncccc12` [T14], the IC50 in experiment [3] (setting [5]) was found to be 0.3 nM; in experiment [4] (setting [6]), 3 nM.
In the case of `O=C(/N=c1\occn1Cc1ccccc1)c1c[nH]c2ncccc12` [T25], the IC50 in experiment [3] (setting [5]) was 1.9 nM; in experiment [4] (setting [6]), 59.2 nM.
Take `CC(c1ccccc1)n1ccs/c1=N\C(=O)c1c[nH]c2ncccc12` (stereo not shown) [T39, (Z)—N-(3-(1-Phenylethyl)thiazol-2(3H)-ylidene)-1H-pyrrolo[2,3-b]pyridine-3-carboxamide]: the IC50 turned out to be 1.9 nM in experiment [3] and 59.2 nM in experiment [4].
With `CC(N)CCn1ccs/c1=N\C(=O)c1c[nH]c2ncccc12` (stereo not shown) [T41, (Z)—N-(3-(3-aminobutyl)thiazol-2(3H)-ylidene)-1H-pyrrolo[2,3-b]pyridine-3-carboxamide], the IC50 in experiment [3] (setting [5]) is 4.4 nM; in experiment [4] (setting [6]) it was 303 nM.
Turning to `N#Cc1ccccc1Cn1ccs/c1=N\C(=O)c1c[nH]c2ncccc12` [T42, (Z)—N-(3-(2-cyanobenzyl)thiazol-2(3H)-ylidene)-1H-pyrrolo[2,3-b]pyridine-3-carboxamide], in experiment [3] (setting [5]), the IC50 turned out to be 12.9 nM.
`NCc1ccccc1Cn1ccs/c1=N\C(=O)c1c[nH]c2ncccc12` [T43, (Z)—N-(3-(2-(aminomethyl)benzyl)thiazol-2(3H)-ylidene)-1H-pyrrolo[2,3-b]pyridine-3-carboxamide]: the IC50 turned out to be 2.2 nM in experiment [3] (setting [5]) and 141 nM in experiment [4] (setting [6]).
Turning to `N#Cc1cccc(Cn2ccs/c2=N\C(=O)c2c[nH]c3ncccc23)c1` [T44, (Z)—N-(3-(3-cyanobenzyl)thiazol-2(3H)-ylidene)-1H-pyrrolo[2,3-b]pyridine-3-carboxamide], the IC50 in experiment [3] (setting [5]) amounted to 260 nM.
With `NCc1cccc(Cn2ccs/c2=N\C(=O)c2c[nH]c3ncccc23)c1` [T45, (Z)—N-(3-(3-(aminomethyl)benzyl)thiazol-2(3H)-ylidene)-1H-pyrrolo[2,3-b]pyridine-3-carboxamide], the figures for the IC50 in experiment [3] (setting [5]) and in experiment [4] (setting [6]) were 30.7 nM and 309 nM, respectively.
As for `N#Cc1ccc(Cn2ccs/c2=N\C(=O)c2c[nH]c3ncccc23)cc1` [T46, (Z)—N-(3-(4-cyanobenzyl)thiazol-2(3H)-ylidene)-1H-pyrrolo[2,3-b]pyridine-3-carboxamide], in experiment [3] (setting [5]), the IC50 stood at 391 nM.
As for `NCc1ccc(Cn2ccs/c2=N\C(=O)c2c[nH]c3ncccc23)cc1` [T47, (Z)—N-(3-(4-(aminomethyl)benzyl)thiazol-2(3H)-ylidene)-1H-pyrrolo[2,3-b]pyridine-3-carboxamide], the IC50 in experiment [3] (setting [5]) was determined as 83.2 nM.
Regarding `O=Cc1ccc(Cn2ccs/c2=N\C(=O)c2c[nH]c3ncccc23)cc1` [T48, (Z)—N-(3-(4-formylbenzyl)thiazol-2(3H)-ylidene)-1H-pyrrolo[2,3-b]pyridine-3-carboxamide], the IC50 in experiment [3] turned out to be 800 nM.
Take `Cc1cs/c(=N\C(=O)c2c[nH]c3ncccc23)n1Cc1ccccc1` [T49]: the 50% inhibitory concentration (IC50) is 2.7 nM in experiment [3] and 0.5 nM in experiment [4].
On to `Cn1nccc1Cn1ccs/c1=N\C(=O)c1c[nH]c2ncccc12` [T58], for which the IC50 in experiment [3] (setting [5]) was 128 nM.
